Laboratory results taken from patent US9511042B2, “N-acyl amino acid derivatives for treating skin conditions such as cellulite” (HELIX BIOMEDIX INC., priority 2010, dated 2016).

Experiments:
3T3-L1 adipocytes [1] = experiment: Cytotoxicity to adipocytes at the concentrations used to stimulate lipolysis; assay type: cell-based, murine; settings: at the concentrations used to stimulate lipolysis (data not shown)
Source text: Both HB2031 and HB2032 were not cytotoxic to 3T3-L1 adipocytes at the concentrations used to simulate lipolysis (data not shown).

3T3-L1 adipocytes [2] = experiment: Lipolysis: free fatty acid release in differentiated adipocytes (BioVision Free Fatty Acid Quantification Kit); assay type: cell-based, murine; settings: 100 μg/ml, overnight; for free fatty acids production in adipocytes relative to known lipolysis inducers (FIG. 4): compared with carnitine, resveratrol, isoproterenol, aminophylline, theophylline, caffeine
Experimental: The degree of fatty acid release can be used to gauge the relative level of glycerol release given this correlation. The following methods were used to determine the effect of 4-methyl-2-(octanoylamino) pentanoic acid and N-isopentyloctanamide on lipolysis in adipocytes.
(§1) The induction of lipolysis in differentiated adipocytes was determined in 3T3-L1 adipocytes using a fatty acid assay kit manufactured by BioVision (Mountain View, Calif.) (Free Fatty Acid Quantification Kit, Cat. No. K612-100). Free fatty acid release correlates with an increase in the level of glycerol. Adipocytes for these assays were prepared as follows. 3T3-L1 murine pre-adipocytes were purchased from the American Type Culture Collection (ATCC) (CL-173™). The cells were cultured in complete medium (ATCC-formulated Dulbecco's Modified Eagle's Medium supplemented with 10% bovine calf serum) and allowed to reach 100% confluence. The induction of differentiation or adipogenesis was carried out in complete medium. On day 0, cells were treated with complete medium containing induction agents (100 μg/ml isobutylmethyxanthine (Sigma, St. Louis, Mo.), 5 μg/ml insulin and 2 μg/ml dexamethasone). On day 3, cells were changed to complete medium containing 5 μg/ml insulin and incubated for 2-3 days. Then, cells were maintained in complete medium for 3-6 days when the majority of cells developed observable intracellular lipid droplets.
For analyzing the effects of 4-methyl-2-(octanoylamino) pentanoic acid and N-isopentyloctanamide on lipolysis, cells (adipocytes prepared above) were treated with either of these compounds at 100 μg/ml. Alternatively, cells were treated overnight with certain substances (e.g., resveratrol, isoproterenol, aminophylline, theophylline) (100 μg/ml) previously known to be lipolysis inducers. Supernatant from each of the cultures was measured for relative glycerol release as estimated using the free fatty acid quantification kit from BioVision following the manufacturer's instructions.

EpiDerm™ Skin Model = experiment: EpiDerm MTT assay for cytotoxicity toward skin tissue; assay type: cell-based; settings: for cell viability (OD570) compared to the glycerin vehicle: 100 μg/ml, 2, 5 and 18 hour incubation (FIG. 7); for toxicity to skin tissue: 1 mg/ml for 24 hours (data not shown)
3T3-L1 preadipocytes = experiment: Adipogenesis assay, Oil red O staining of lipid droplets (Cayman Adipogenesis Assay Kit); assay type: cell-based, murine
Experimental: as §1
Intracellular lipid droplet production in adipocytes is a feature of adipogenesis. Therefore, adipogenesis was monitored by staining for lipid droplets in cells using the Adipogenesis Assay Kit from Cayman (Ann Arbor, Mich.) following the manufacture's instructions. […]

Row | SMILES | cytotoxicity to 3T3-L1 adipocytes (3T3-L1 adipocytes [1]) | free fatty acids production compared with isoproterenol, assay in triplicate (FIG. 5) (3T3-L1 adipocytes [2]) | free fatty acids production in adipocytes relative to known lipolysis inducers (FIG. 4) (3T3-L1 adipocytes [2]) | cell viability (OD570) compared to the glycerin vehicle (EpiDerm™ Skin Model) | toxicity to skin tissue (EpiDerm™ Skin Model) | differentiation of cells into adipocytes (enlarged cells, intracellular lipid droplets) (3T3-L1 preadipocytes; 100, 150, 200 μg/ml with adipogenesis inducers for nine days, concentration dependent (FIG. 6C-E)) | intensity of cellular lipid formation (Oil red O staining) (3T3-L1 preadipocytes; low concentration (FIG. 6C, 100 μg/ml), nine days)
1 | CCCCCCCC(=O)NC(CC(C)C)C(=O)O (stereo not drawn) [HB2031, 4-methyl-2-(octanoylamino) pentanoic acid] | not cytotoxic | significantly more active than isoproterenol | to a higher degree than all the other compounds tested | no difference in cell viability | no toxicity | – | –
2 | CCCCCCCC(=O)NCCC(C)C [HB2032, N-isopentyloctanamide] | not cytotoxic | significantly more active than isoproterenol | to a higher degree than all the other compounds tested | no difference in cell viability | no toxicity | inhibited the differentiation of cells into adipocytes | significantly reduced
